How the values were obtained:
[1] = target: cGAS (Homo sapiens (Human), UniProt Q8N884); test: Human cGAS enzyme assay (hcGAS IC50, in vitro), cGAMP formation by RapidFire MS; assay type: biochemical;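 note: enzyme activated by 45 bp dsDNA with GTP and ATP (30 µM each), 60 min compound pre-incubation then 90 min reaction, cGAMP relative to cyclic-di-GMP internal standard, 8-point dilutions up to 10 µM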
[2] = tested on: cellular cGAS activity in baculovirus-stimulated THP1-Dual cells (IRF dependent Lucia luciferase reporter); test: Human cGAS cell assay: inhibition of IFN induction in virus-stimulated THP1 cells (THP1(vir) IC50); assay type: cell-based; conditions: Homo sapiens, THP1-Dual; inhibition of IFN induction in virus-stimulated THP1 cells; read-out: THP1(vir) IC50
Method in brief: (§1)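 THP1-Dual cells with IRF-dependent Lucia luciferase reporter, stimulated by empty baculovirus (dsDNA delivery activating cGAS) or, for the counter assay, directly by cGAMP. 5000 cells/well, 8 concentrations from 10 μM top, 1% DMSO, 18 h at 37 °C; luminescence read, IC50 by 4-parameter logistic fit versus unstimulated low control.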

[3] = tested on: cGAMP-stimulated THP1-Dual cells (pathway directly downstream of cGAS); test: cGAMP stimulated counter cell assay: inhibition of IFN induction in cGAMP-stimulated THP1 cells (THP1(cGAMP) IC50); assay type: cell-based, human; conditions: for IC50: Homo sapiens, THP1-Dual, inhibition of IFN induction in cGAMP-stimulated THP1 cells, read-out: THP1(cGAMP) IC50 (converted); for Ratio THP1(cGAMP) IC50 / THP1(vir) IC50: selectivity for cGAS inhibition
Method in brief: as §1

[4] = tested on: cellular cGAS activity in dsDNA-stimulated human whole blood; test: Human whole blood assay (hWB IC50): IFNα2α production after dsDNA transfection; assay type: cell-based; conditions: inhibition of IFN induction in dsDNA-stimulated human whole blood
Method in brief: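 Citrated blood from healthy donors preincubated 60 min at room temperature with compound (top 10 µM, ~1:5 steps, 0.1% DMSO), then transfected with dsDNA/Fugene and incubated 22 h at 37 °C. Plasma IFNα2α measured by MSD immunoassay; IC50 from 4-parameter fit of % control (stimulated vs unstimulated).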

[5] = biochemical (in vitro) cGAS inhibition

Chain of cGAS (Q8N884 whole entry): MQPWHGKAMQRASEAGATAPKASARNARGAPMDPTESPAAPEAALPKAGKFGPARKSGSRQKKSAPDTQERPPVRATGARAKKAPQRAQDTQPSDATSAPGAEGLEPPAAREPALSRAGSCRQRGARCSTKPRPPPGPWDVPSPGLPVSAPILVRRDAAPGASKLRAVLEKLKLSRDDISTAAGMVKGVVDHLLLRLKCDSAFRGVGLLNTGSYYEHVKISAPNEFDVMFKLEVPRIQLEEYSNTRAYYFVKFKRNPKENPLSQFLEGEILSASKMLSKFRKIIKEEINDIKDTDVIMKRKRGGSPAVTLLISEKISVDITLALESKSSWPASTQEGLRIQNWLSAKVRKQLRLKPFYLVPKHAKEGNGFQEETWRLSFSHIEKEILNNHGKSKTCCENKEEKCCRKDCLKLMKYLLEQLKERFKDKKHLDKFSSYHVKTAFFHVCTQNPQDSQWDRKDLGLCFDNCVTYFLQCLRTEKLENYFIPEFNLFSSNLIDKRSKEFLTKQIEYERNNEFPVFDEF

With `CC(=O)Nc1cc(-c2cnc(O[C@H]3C[C@@H](C(=O)O)N(c4nc(C(F)F)nc5c4oc4ccccc45)C3)c(N3CCOC4(COC4)[C@@H]3C)c2)ccn1` [Example 3.15] the IC50 [1, 5] was 10 nM, the IC50 [2] was 57 nM and the IC50 [3] was 19900 nM. The “Ratio THP1(cGAMP) IC50 / THP1(vir) IC50” value [3] was 348 and the IC50 [4] was 22 nM.
`CNc1cccc(-c2cnc(O[C@H]3C[C@@H](C(=O)O)N(c4nc(C(F)(F)F)nc5c4oc4ccccc45)C3)c(N3CCOC4(COC4)[C@@H]3C)c2)n1` [Example 7.03] was tested, and the IC50 [1, 5] was 21 nM, the IC50 [2] was 2 nM and the IC50 [3] was over 10000 nM. For the same compound, the “Ratio THP1(cGAMP) IC50 / THP1(vir) IC50” value [3] was 4151 and the IC50 [4] was 27 nM.
Compound `C#Cc1cnc(O[C@H]2C[C@@H](C(=O)O)N(c3nc(C(F)F)nc4c3oc3ccccc34)C2)c(N2CCC3(C[C@@H]2C)N=N3)c1` [Example 1.20] has an IC50 [1, 5] of 2 nM, an IC50 [2] of 796 nM and an IC50 [3] of over 16600 nM. For the same compound, the “Ratio THP1(cGAMP) IC50 / THP1(vir) IC50” value [3] was over 21 and the IC50 [4] was 670 nM.
For `COc1cc(-c2cnc(O[C@H]3C[C@@H](C(=O)O)N(c4nc(C(F)F)nc5c4oc4ccccc45)C3)c(N3CCOC4(COC4)[C@@H]3C)c2)c(F)cn1` [Example 3.32], the IC50 [1, 5] was 9 nM, the IC50 [2] was 2 nM and the IC50 [3] was 12900 nM. The “Ratio THP1(cGAMP) IC50 / THP1(vir) IC50” value [3] was 5194 and the IC50 [4] was 17 nM.
For `C#Cc1cnc(O[C@H]2C[C@@H](C(=O)O)N(c3nc(C(F)F)nc4c3oc3ccccc34)C2)c(N2CCCC[C@@H]2C)c1` [Example 1.19], the IC50 [1, 5] was 4 nM, the IC50 [2] was 699 nM and the IC50 [3] was over 16600 nM. For the same compound, the “Ratio THP1(cGAMP) IC50 / THP1(vir) IC50” value [3] was over 24 and the IC50 [4] was 667 nM.
Compound `CNc1cncc(-c2cnc(O[C@H]3C[C@@H](C(=O)O)N(c4nc(C(F)(F)F)nc5c4oc4ccccc45)C3)c(N3CCOC4(COC4)[C@@H]3C)c2)c1` [Example 3.18] has an IC50 [1, 5] of 3 nM, an IC50 [2] of 7 nM and an IC50 [3] of 4760 nM. The “Ratio THP1(cGAMP) IC50 / THP1(vir) IC50” value [3] was 645 and the IC50 [4] was 44 nM.
For `C[C@@H]1N(c2cc(-c3cccc(CO)c3)cnc2O[C@H]2C[C@@H](C(=O)O)N(c3nc(C(F)F)nc4c3oc3ccccc34)C2)CCOC12COC2` [Example 3.11], the IC50 [1, 5] was 4 nM, the IC50 [2] was 5 nM and the IC50 [3] was 5290 nM. The “Ratio THP1(cGAMP) IC50 / THP1(vir) IC50” value [3] was 1149 and the IC50 [4] was 11 nM.
For `CC#Cc1cnc(O[C@H]2C[C@@H](C(=O)O)N(c3nc(C(F)(F)F)nc4c3oc3ccccc34)C2)c(N2CCOC3(COC3)[C@@H]2C)c1` [Example 6.01], the IC50 [1, 5] was 10 nM, the IC50 [2] was under 5 nM and the IC50 [3] was 20500 nM. For the same compound, the “Ratio THP1(cGAMP) IC50 / THP1(vir) IC50” value [3] was 3801 and the IC50 [4] was 25 nM.
With `CC#Cc1cnc(O[C@H]2C[C@@H](C(=O)O)N(c3nc(C(F)F)nc4c3oc3ccccc34)C2)c(N2CCOC3(COC3)[C@@H]2C)c1` [Example 6.02] the IC50 [1, 5] was 6 nM, the IC50 [2] was under 5 nM and the IC50 [3] was over 16000 nM. For the same compound, the “Ratio THP1(cGAMP) IC50 / THP1(vir) IC50” value [3] was over 3000 and the IC50 [4] was 8 nM.
`C[C@@H]1N(c2cc(-c3ccc(OC4CCOCC4)nc3)cnc2O[C@H]2C[C@@H](C(=O)O)N(c3nc(C(F)(F)F)nc4c3oc3ccccc34)C2)CCOC12COC2` [Example 3.29] showed an IC50 [1, 5] of 66 nM, an IC50 [2] of 591 nM and an IC50 [3] of 6540 nM. The “Ratio THP1(cGAMP) IC50 / THP1(vir) IC50” value [3] was 11 and the IC50 [4] was 1570 nM.
`C[C@@H]1N(c2cc(Br)cnc2O[C@H]2C[C@@H](C(=O)O)N(c3nc(C(F)(F)F)nc4c3oc3ccccc34)C2)CCOC12COC2` [Example 1.10, (2S,4S)-4-({5-bromo-3-[(9S)-9-methyl-2,5-dioxa-8-azaspiro[3.5]nonan-8-yl]pyridin-2-yl}oxy)-1-[4-(trifluoromethyl)-8-oxa-3,5-diazatricyclo[7.4.0.0^2,7]trideca-1(9),2(7),3,5,10,12-hexaen-6-yl]pyrrolidine-2-carboxylic acid] was tested, and the IC50 ([1]; biochemical (in vitro), human cGAS, 45 bp dsDNA, GTP/ATP) was 5 nM, the IC50 [2] was 91 nM and the IC50 [3] was 16100 nM. For the same compound, the “Ratio THP1(cGAMP) IC50 / THP1(vir) IC50” value [3] was 178 and the IC50 [4] was 33 nM.
Compound `CNc1cccc(-c2cnc(O[C@H]3C[C@@H](C(=O)O)N(c4nc(C(F)(F)F)nc5c4oc4ccccc45)C3)c(N3CCOC4(COC4)[C@@H]3C)c2)c1` [Example 3.12] has an IC50 [1, 5] of 9 nM, an IC50 [2] of 6 nM and an IC50 [3] of 11100 nM. The “Ratio THP1(cGAMP) IC50 / THP1(vir) IC50” value [3] was 1930 and the IC50 [4] was 19 nM.
Compound `C[C@@H]1N(c2cc(-c3cccc(CN)c3)cnc2O[C@H]2C[C@@H](C(=O)O)N(c3nc(C(F)F)nc4c3oc3ccccc34)C2)CCOC12COC2` [Example 3.19] has an IC50 [1, 5] of 8 nM, an IC50 [2] of 267 nM and an IC50 [3] of over 16600 nM. For the same compound, the “Ratio THP1(cGAMP) IC50 / THP1(vir) IC50” value [3] was over 62 and the IC50 [4] was 47 nM.
Work on `C[C@@H]1N(c2cc(Cl)cnc2O[C@H]2C[C@@H](C(=O)O)N(c3nc(C(F)F)nc4c3oc3ccccc34)C2)CCCC12COC2` [Example 1.21] yielded an IC50 [1, 5] of 4 nM, an IC50 [2] of 85 nM and an IC50 [3] of 14800 nM. For the same compound, the “Ratio THP1(cGAMP) IC50 / THP1(vir) IC50” value [3] was 175 and the IC50 [4] was 46 nM.

— patent US20240342186A1, “PYRIDINE DERIVATIVES WITH N-LINKED CYCLIC SUBSTITUENTS AS cGAS INHIBITORS” (Boehringer Ingelheim International GmbH, priority 2021, published 2024)
